Test results taken from patent US9365522B2, “Pyrazole amide derivative” (AMGEN INC., priority 2015, dated 2016).

Molecular target: T1, ligand binding domain of human ROR gamma (Homo sapiens, UniProt P51449)
T1 construct: NM_001001523; expressed in transfected cells; host or cells: HEK293T
T1 sequence (P51449 247-497 isoform P51449-2): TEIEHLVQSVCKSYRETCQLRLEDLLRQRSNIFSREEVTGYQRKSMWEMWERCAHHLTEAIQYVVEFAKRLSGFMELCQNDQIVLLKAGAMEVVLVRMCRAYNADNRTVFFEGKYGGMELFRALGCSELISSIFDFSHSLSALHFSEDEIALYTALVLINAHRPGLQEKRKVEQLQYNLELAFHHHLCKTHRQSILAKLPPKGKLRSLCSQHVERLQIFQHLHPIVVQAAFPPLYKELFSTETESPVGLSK
Assay: ROR gamma reporter gene assay (GAL4-RORγ LBD luciferase, Dual-Glo)
Type: cell-based
Conditions: HEK293T cells transfected with pM-ROR gamma, 8 concentrations 3.5 nM to 10.5 μM, 24 h incubation; read-out: result (pIC50, inhibition of RORγ transcriptional activity) (converted)
Protocol: Luciferase reporter gene assay was used to assess inhibition of RORγ transcriptional activity.
ROR gamma expression vector was prepared by inserting the ligand binding domain of human ROR gamma (amino acid 247-497 of Genbank Accession NO. NM_001001523) adjacent to the yeast GAL4 transcription factor DNA binding domain in the expression vector pM (Clontech). The resulting expression vector pM-ROR gamma was used in transfection experiments together with the pGL4 luciferase reporter plasmid (Promega) containing five copies of the UAS GAL4 recognition site and pRL-CMV plasmids (Promega) containing the constitutive CMV promoter and the renilla luciferase.
For preparing transfection reagent/DNA mixture, 1 μg pM-ROR gamma, 1 μg pGL4 5×UAS, 625 pg pRL-CMV and 6.25 μL FuGENE™ HD transfection reagent (Promega) were mixed in 0.25 mL OPTI-MEM™ (Life technologies) at room temperature. At the same time, Negative control DNA mixture was prepared by using 1 μg pM empty vector instead of pM-ROR gamma plasmid. After a fifteen minute incubation, 0.25 mL of transfection reagent/DNA mixture was added to 1,000,000 of HEK293T cells (ATCC) in 5 mL of OPTI-MEM™ containing 10% Charcoal Stripped Fetal Bovine Serum.
Transfected cells were seeded onto 384 well plate (10 μL/well) and the 7.5 nL of test compounds were added to the wells in 8 concentrations ranging from 3.5 nM to 10.5 μM. The compounds were dissolved in 100% DMSO and the final concentration of DMSO in the assay was 0.075%.
After 24 h of incubation at 37° C., 5% CO2 in a cell culture incubator, the Dual-Glo™ Luciferase Assay System was used to detect activity according to the manufacturer's instructions (Promega, Cat. No.: E2920).
Data was plotted and pIC50 values were calculated using the XLfit program (ID Business Solutions Ltd.).

Row | SMILES | IC50 [pM]
1 | O=C(CN(C(=O)c1cnn([C@H]2CC[C@H](C(=O)O)CC2)c1C(F)(F)F)C1CCOC1)c1c(Cl)cncc1Cl (stereo partly drawn) [Example 198, trans-4-(4-((2-(3,5-dichloropyridin-4-yl)-2-oxoethyl)-(oxolan3-yl)carbamoyl)-5-(trifluoromethyl)pyrazol-1-yl)cyclohexane-1-carboxylic acid] | > 1e+07
2 | O=C(CN(C(=O)c1cnn([C@H]2CC[C@H](C(=O)O)CC2)c1C(F)(F)F)C1Cc2ccccc2C1)c1c(Cl)cncc1Cl [Example 180, trans-4-(4-((2-(3,5-dichloropyridin-4-yl)-2-oxoethyl)-(2,3-dihydro-1H-inden-2-yl)carbamoyl)-5-(trifluoromethyl)pyrazol-1-yl)cyclohexane-1-carboxylic acid] | 112000
3 | O=C(CN(Cc1cccc(F)c1F)C(=O)c1cnn([C@H]2CC[C@H](C(=O)O)CC2)c1C(F)(F)F)c1c(Cl)cncc1Cl [Example 43, trans-4-(4-((2-(3,5-dichloropyridin-4-yl)-2-oxoethyl)(2,3-difluorobenzyl)carbamoyl)-5-(trifluoromethyl)-1H-pyrazol-1-yl)cyclohexanecarboxylic acid] | 33900
4 | COc1cccc(Cl)c1C(=O)CN(CC#CC(C)(C)C)C(=O)c1cnn([C@H]2CC[C@](C)(C(=O)O)CC2)c1C(F)(F)F [Example 214, trans-4-(4-((2-(2-chloro-6-methoxyphenyl)-2-oxoethyl)-(4,4-dimethylpent-2-ynyl)carbamoyl)-5-(trifluoromethyl)pyrazol-1-yl)-1-methylcyclohexane-1-carboxylic acid] | 324000
5 | CC12CCC(CN(CC(=O)c3c(Cl)cc(F)cc3Cl)C(=O)c3cnn([C@H]4CC[C@](C)(C(=O)O)CC4)c3C(F)(F)F)(CC1)O2 [Example 244, trans-4-(4-((2-(2,6-dichloro-4-fluorophenyl)-2-oxoethyl)-((1-methyl-7-oxabicyclo[2.2.1]heptan-4-yl)methyl)carbamoyl)-5-(trifluoromethyl)pyrazol-1-yl)-1-methylcyclohexane-1-carboxylic acid] | 6920
6 | O=C(CN(Cc1cccnc1)C(=O)c1cnn([C@H]2CC[C@H](C(=O)O)CC2)c1C(F)(F)F)c1c(Cl)cncc1Cl [Example 104, trans-4-(4-((2-(3,5-dichloropyridin-4-yl)-2-oxoethyl)-(pyridin-3-ylmethyl)carbamoyl)-5-(trifluorornethyl)pyrazol-1-yl)cyclohexane-1-carboxylic acid] | 2.04e+06
7 | CC(C)N1C2CCC1CC(N(CC(=O)c1c(Cl)cc(F)cc1Cl)C(=O)c1cnn([C@H]3CC[C@](C)(C(=O)O)CC3)c1C(F)(F)F)C2 (stereo partly drawn) [Example 305, trans-4-(4-((2-(2,6-dichloro-4-fluorophenyl)-2-oxoethyl)-(8-propan-2-yl-8-azabicyclo[3.2.1]octan-3-yl)carbamoyl)-5-(trifluoromethyl)pyrazol-1-yl)-1-methylcyclohexane-1-carboxylic acid] | > 1.05e+07
8 | C[C@]1(C(=O)O)CC[C@H](n2ncc(C(=O)N(CC(=O)c3c(Cl)cc(F)cc3Cl)Cc3cc(F)cc(F)c3)c2C(F)(F)F)CC1 [Example 2, trans-4-(4-((2-(2,6-dichloro-4-fluorophenyl)-2-oxoethyl)(3,5-difluorobenzyl)carbamoyl)-5-(trifluoromethyl)-1H-pyrazol-1-yl)-1-methylcyclohexanecarboxylic acid] | 7590

Second part, the compound after the results:

Row | IC50 [pM] | SMILES
9 | 57500 | CC1(C)CCC(N(CC(O)c2c(Cl)cc(F)cc2Cl)C(=O)c2cnn([C@H]3CC[C@](C)(C(=O)O)CC3)c2C(F)(F)F)CC1 (single isomer, unassigned) [Example 362, trans-4-(4-(((2R)-2-(2,6-dichloro-4-fluorophenyl)-2-hydroxyethyl)-(4,4-dimethylcyclohexyl)carbamoyl)-5-(trifluoromethyl)pyrazol-1-yl)-1-methylcyclohexane-1-carboxylic acid or trans-4-(4-(((2S)-2-(2,6-dichloro-4-fluorophenyl)-2-hydroxyethyl)-(4,4-dimethylcyclohexyl)carbamoyl)-5-(trifluoromethyl)pyrazol-1-yl)-1-methylcyclohexane-1-carboxylic acid]
10 | 8910 | CC(C)(C)CN(CC(=O)c1c(Cl)cc(F)cc1Cl)C(=O)c1cnn(C23CCC(C(=O)O)(CC2)CC3)c1C(F)(F)F [Example 245, 4-(4-((2-(2,6-dichloro-4-fluorophenyl)-2-oxoethyl)-(2,2-dimethylpropyl)carbamoyl)-5-(trifluoromethyl)pyrazol-1-yl)bicyclo[2.2.2]octane-1-carboxylic acid]
11 | 3.39e+06 | CC1(C)[C@@H]2C[C@H](N(C[C@@H](O)c3ccccc3C(F)(F)F)C(=O)c3cnn([C@H]4CC[C@](C)(C(=O)O)CC4)c3C(F)(F)F)C[C@@H]21 [Example 373, trans-4-(4-(((1R,3r,5S)-6,6-dimethylbicyclo[3.1.0]hexan-3-yl)(2-hydroxy-2-(2-(trifluoromethyl)phenyl)ethyl)carbamoyl)-5-(trifluoromethyl)-1H-pyrazol-1-yl)-1-methylcyclohexanecarboxylic acid]
12 | 11200 | CCC(C)(C)CN(CC(=O)c1c(Cl)cc(F)cc1Cl)C(=O)c1cnn(C23CCC(C(=O)O)(CC2)CC3)c1C(F)(F)F [Example 309, 4-(4-((2-(2,6-dichloro-4-fluorophenyl)-2-oxoethyl)-(2,2 dimethylbutyl)carbarnoyl)-5-(trifluoromethyl)pyrazol-1-yl)bicyclo [2.2.2] octane-1-carboxylic acid]
13 | 107000 | Cc1cc(Cl)cc(C)c1C(=O)CN(Cc1cc(F)cc(F)c1)C(=O)c1cnn([C@H]2CC[C@H](C(=O)O)CC2)c1C(F)(F)F [Example 268, trans-4-(4-((2-(4-chloro-2,6-dimethylphenyl)-2-oxoethyl)-((3,5-difluorophenyl)methyl)carbamoyl)-5-(trifluoromethyl)pyrazol-1-yl)cyclohexane-1-carboxylic acid]
14 | 39800 | CC1(C)[C@@H]2C[C@H](N(C[C@H](O)c3c(F)cncc3Cl)C(=O)c3cnn([C@H]4CC[C@](C)(C(=O)O)CC4)c3C(F)(F)F)C[C@@H]21 [Example 383, trans-4-(4-((2-(3-chloro-5-fluoropyridin-4-yl)-2-hydroxyethyl)((1R,3r,5S)-6,6-dimethylbicyclo[3.1.0]hexan-3-yl)carbamoyl)-5-(trifluoromethyl)-1H-pyrazol-1-yl)-1-methylcyclohexanecarboxylic acid]
15 | 28800 | Cc1[nH]c2cccc(Cl)c2c1CCN(C(=O)c1cnn([C@H]2CC[C@](C)(C(=O)O)CC2)c1C(F)(F)F)[C@H]1C[C@@H]2[C@H](C1)C2(C)C [Example 392, trans-4-(4-((2-(4-chloro-2-methyl-1H-indol-3-yl)ethyl)((1R,3r,5S)-6,6-dimethylbicyclo[3.1.0]hexan-3-yl)carbamoyl)-5-(trifluoromethyl)-1H-pyrazol-1-yl)-1-methylcyclohexanecarboxylic acid]
16 | 2.95e+06 | CC(C)(C)CN(CCc1c[nH]c2ccccc12)C(=O)c1cnn([C@H]2CC[C@](C)(C(=O)O)CC2)c1C(F)(F)F [Example 328, trans-4-(4-(2,2-dimethylpropyl-(2-(1H-indol-3-yl)ethyl)carbamoyl)-5-(trifluoromethyl)pyrazol-1-yl)-1-methylcyclohexane-1-carboxylic acid]
